According to the NIST ThermoML archive (doi:10.1016/j.jct.2011.01.014):

Experiment: xn = mol fraction of the nth substance listed
Conditions: 101 kPa, Liquid; for mass density: Vibrating tube method; for speed of sound: sound velocity cell

CC(=O)[O-].[NH3+]CCO [2-hydroxyethylammonium acetate] + CO
Conditions	mass density [kg/m3]	speed of sound [m/s]
288.15 K, x1 = 0.0492	850.323	1214.8
288.15 K, x1 = 0.0951	891.619	1276.8
288.15 K, x1 = 0.1987	958.564	1390.3
288.15 K, x1 = 0.29	1002.52	1476.1
288.15 K, x1 = 0.3786	1034.79	1545.4
288.15 K, x1 = 0.4825	1066.13	1618.4
288.15 K, x1 = 0.6007	1093.45	1688
288.15 K, x1 = 0.6711	1107.68	1725.1
288.15 K, x1 = 0.7797	1126.68	1740.8
288.15 K, x1 = 0.8297	1134.06	1797.8
288.15 K, x1 = 0.9328	1147.97	1795.3
288.15 K, x1 = 1	1154.7	1817.2
290.65 K, x1 = 0.0492	848.152	1207.2
290.65 K, x1 = 0.0951	889.567	1269.4
290.65 K, x1 = 0.1987	956.698	1383.4
290.65 K, x1 = 0.29	1000.78	1469.5
290.65 K, x1 = 0.3786	1033.16	1538.9
290.65 K, x1 = 0.4825	1064.58	1612.3
290.65 K, x1 = 0.6007	1091.92	1681.6
290.65 K, x1 = 0.6711	1106.19	1718.6
290.65 K, x1 = 0.7797	1125.18	1734.6
290.65 K, x1 = 0.8297	1132.65	1790.7
290.65 K, x1 = 0.9328	1146.53	1787.9
290.65 K, x1 = 1	1153.28	1810
293.15 K, x1 = 0.0492	845.97	1199.8
293.15 K, x1 = 0.0951	887.505	1262.1
293.15 K, x1 = 0.1987	954.823	1376.3
293.15 K, x1 = 0.29	999.035	1462.8
293.15 K, x1 = 0.3786	1031.5	1532.4
293.15 K, x1 = 0.4825	1063.02	1606.2
293.15 K, x1 = 0.6007	1090.45	1675.2
293.15 K, x1 = 0.6711	1104.7	1712.1
293.15 K, x1 = 0.7797	1123.69	1728.6
293.15 K, x1 = 0.8297	1131.24	1784
293.15 K, x1 = 0.9328	1145.1	1781.1
293.15 K, x1 = 1	1151.87	1803.2
295.65 K, x1 = 0.0492	843.786	1192.1
295.65 K, x1 = 0.0951	885.441	1254.6
295.65 K, x1 = 0.1987	952.95	1369.2
295.65 K, x1 = 0.29	997.283	1456
295.65 K, x1 = 0.3786	1029.84	1525.9
295.65 K, x1 = 0.4825	1061.45	1600
295.65 K, x1 = 0.6007	1088.98	1669.1
295.65 K, x1 = 0.6711	1103.21	1705.8
295.65 K, x1 = 0.7797	1122.2	1722.7
295.65 K, x1 = 0.8297	1129.83	1777.5
295.65 K, x1 = 0.9328	1143.67	1774.5
295.65 K, x1 = 1	1150.45	1796.8
298.15 K, x1 = 0.0492	841.599	1184.3
298.15 K, x1 = 0.0951	883.376	1247
298.15 K, x1 = 0.1987	951.074	1362.2
298.15 K, x1 = 0.29	995.529	1449.3
298.15 K, x1 = 0.3786	1028.18	1519.5
298.15 K, x1 = 0.4825	1059.89	1593.9
298.15 K, x1 = 0.6007	1087.51	1663
298.15 K, x1 = 0.6711	1101.72	1699.7
298.15 K, x1 = 0.7797	1120.71	1717
298.15 K, x1 = 0.8297	1128.41	1771.3
298.15 K, x1 = 0.9328	1142.24	1768.2
298.15 K, x1 = 1	1149.04	1790.7
300.65 K, x1 = 0.0492	839.407	1176.5
300.65 K, x1 = 0.0951	881.305	1239.5
300.65 K, x1 = 0.1987	949.197	1355.1
300.65 K, x1 = 0.29	993.775	1442.7
300.65 K, x1 = 0.3786	1026.52	1513.1
300.65 K, x1 = 0.4825	1058.32	1587.8
300.65 K, x1 = 0.6007	1086.03	1657
300.65 K, x1 = 0.6711	1100.3	1693.7
300.65 K, x1 = 0.7797	1119.26	1711.3
300.65 K, x1 = 0.8297	1127	1765.3
300.65 K, x1 = 0.9328	1140.81	1762.1
300.65 K, x1 = 1	1147.63	1784.8
303.15 K, x1 = 0.0492	837.209	1168.8
303.15 K, x1 = 0.0951	879.233	1232
303.15 K, x1 = 0.1987	947.318	1348.1
303.15 K, x1 = 0.29	992.018	1436
303.15 K, x1 = 0.3786	1024.86	1506.7
303.15 K, x1 = 0.4825	1056.74	1581.7
303.15 K, x1 = 0.6007	1084.54	1651
303.15 K, x1 = 0.6711	1098.87	1687.7
303.15 K, x1 = 0.7797	1117.84	1705.7
303.15 K, x1 = 0.8297	1125.59	1759.4
303.15 K, x1 = 0.9328	1139.38	1756.3
303.15 K, x1 = 1	1146.22	1779
305.65 K, x1 = 0.0492	835.006	–
305.65 K, x1 = 0.0951	877.153	–
305.65 K, x1 = 0.1987	945.436	–
305.65 K, x1 = 0.29	990.259	–
305.65 K, x1 = 0.3786	1023.19	–
305.65 K, x1 = 0.4825	1055.17	–
305.65 K, x1 = 0.6007	1083.06	–
305.65 K, x1 = 0.6711	1097.42	–
305.65 K, x1 = 0.7797	1116.4	–
305.65 K, x1 = 0.8297	1124.17	–
305.65 K, x1 = 0.9328	1137.95	–
305.65 K, x1 = 1	1144.8	–
